Test results taken from PubChem BioAssay (NCI).
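Each compound was tested at five concentrations against cells in 96-well plates for 48 hours. Here, GI50 denotes the concentration required for 50% inhibition of growth. TGI: concentration producing complete growth inhibition.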

Columns and labels:
Assay in all cases: DTP human tumour cell line panel, 48 h
786-0 renal = tested on: 786-0 renal
A498 renal = tested on: A498 renal
A549 NSCLC = tested on: A549 NSCLC
ACHN renal = tested on: ACHN renal
BT-549 breast = tested on: BT-549 breast
CAKI-1 renal = tested on: CAKI-1 renal
CCRF-CEM leukemia = tested on: CCRF-CEM leukemia
COLO 205 colon = tested on: COLO 205 colon
DU-145 prostate = tested on: DU-145 prostate
EKVX NSCLC = tested on: EKVX NSCLC
HCC-2998 colon = tested on: HCC-2998 colon
HCT-116 colon = tested on: HCT-116 colon
HCT-15 colon = tested on: HCT-15 colon
HL-60(TB) leukemia = tested on: HL-60(TB) leukemia
HOP-62 NSCLC = tested on: HOP-62 NSCLC
HOP-92 NSCLC = tested on: HOP-92 NSCLC
HS 578T breast = tested on: HS 578T breast
HT29 colon = tested on: HT29 colon
IGROV1 ovarian = tested on: IGROV1 ovarian
K-562 leukemia = tested on: K-562 leukemia
KM12 colon = tested on: KM12 colon
LOX IMVI melanoma = tested on: LOX IMVI melanoma
M14 melanoma = tested on: M14 melanoma
MALME-3M melanoma = tested on: MALME-3M melanoma
MCF7 breast = tested on: MCF7 breast
MDA-MB-231 breast = tested on: MDA-MB-231 breast
MDA-MB-435 = tested on: MDA-MB-435
MDA-MB-468 breast = tested on: MDA-MB-468 breast
MOLT-4 leukemia = tested on: MOLT-4 leukemia
NCI-H226 lung = tested on: NCI-H226 lung
NCI-H23 lung = tested on: NCI-H23 lung
NCI-H460 lung = tested on: NCI-H460 lung
NCI-H522 lung = tested on: NCI-H522 lung
NCI/ADR-RES ovarian = tested on: NCI/ADR-RES ovarian
OVCAR-3 ovarian = tested on: OVCAR-3 ovarian
OVCAR-4 ovarian = tested on: OVCAR-4 ovarian
OVCAR-5 ovarian = tested on: OVCAR-5 ovarian
OVCAR-8 ovarian = tested on: OVCAR-8 ovarian
PC-3 prostate = tested on: PC-3 prostate
RPMI-8226 leukemia = tested on: RPMI-8226 leukemia
RXF 393 renal = tested on: RXF 393 renal
SF-268 CNS = tested on: SF-268 CNS
SF-295 CNS = tested on: SF-295 CNS
SF-539 CNS = tested on: SF-539 CNS
SK-MEL-2 melanoma = tested on: SK-MEL-2 melanoma
SK-MEL-28 melanoma = tested on: SK-MEL-28 melanoma
SK-MEL-5 melanoma = tested on: SK-MEL-5 melanoma
SK-OV-3 ovarian = tested on: SK-OV-3 ovarian
SN12C renal = tested on: SN12C renal
SNB-19 CNS = tested on: SNB-19 CNS
SNB-75 CNS = tested on: SNB-75 CNS
SW-620 colon = tested on: SW-620 colon
T-47D breast = tested on: T-47D breast
TK-10 renal = tested on: TK-10 renal
U251 CNS = tested on: U251 CNS
UACC-257 melanoma = tested on: UACC-257 melanoma
UACC-62 melanoma = tested on: UACC-62 melanoma
UO-31 renal = tested on: UO-31 renal

SMILES: COc1ccc(-c2nc3cc(C)ccc3n2CC(=O)N=Nc2c(O)[nH]c3ccccc23)cc1
- GI50 (786-0 renal): 12.7 µM
- TGI (786-0 renal): 26 µM
- GI50 (A498 renal): 11.8 µM
- TGI (A498 renal): 25.7 µM
- GI50 (A549 NSCLC): 1.88 µM
- TGI (A549 NSCLC): 4.02 µM
- GI50 (ACHN renal): 3.03 µM
- TGI (ACHN renal): 11.9 µM
- GI50 (BT-549 breast): 1.77 µM
- TGI (BT-549 breast): 4.98 µM
- GI50 (CAKI-1 renal): 2.86 µM
- TGI (CAKI-1 renal): 11.6 µM
- GI50 (CCRF-CEM leukemia): 3.54 µM
- TGI (CCRF-CEM leukemia): 17.4 µM
- GI50 (COLO 205 colon): 3.73 µM
- TGI (COLO 205 colon): 14 µM
- GI50 (DU-145 prostate): 3.57 µM
- TGI (DU-145 prostate): 14 µM
- GI50 (EKVX NSCLC): 3.67 µM
- TGI (EKVX NSCLC): 15.5 µM
- GI50 (HCC-2998 colon): 13.1 µM
- TGI (HCC-2998 colon): 26.1 µM
- GI50 (HCT-116 colon): 1.86 µM
- TGI (HCT-116 colon): 3.71 µM
- GI50 (HCT-15 colon): 3.66 µM
- TGI (HCT-15 colon): 14.5 µM
- GI50 (HL-60(TB) leukemia): 5.5 µM
- TGI (HL-60(TB) leukemia): 29.2 µM
- GI50 (HOP-62 NSCLC): 3.7 µM
- TGI (HOP-62 NSCLC): 18.2 µM
- GI50 (HOP-92 NSCLC): 1.94 µM
- TGI (HOP-92 NSCLC): 6.3 µM
- GI50 (HS 578T breast): 2.27 µM
- TGI (HS 578T breast): 7.12 µM
- GI50 (HT29 colon): 1.82 µM
- TGI (HT29 colon): 3.52 µM
- GI50 (IGROV1 ovarian): 11.9 µM
- TGI (IGROV1 ovarian): 25 µM
- GI50 (K-562 leukemia): 3.23 µM
- TGI (K-562 leukemia): 43.5 µM
- GI50 (KM12 colon): 3.96 µM
- TGI (KM12 colon): 16 µM
- GI50 (LOX IMVI melanoma): 6.32 µM
- TGI (LOX IMVI melanoma): 20.8 µM
- GI50 (M14 melanoma): 2.31 µM
- TGI (M14 melanoma): 5.4 µM
- GI50 (MALME-3M melanoma): 2.17 µM
- TGI (MALME-3M melanoma): 4.42 µM
- GI50 (MCF7 breast): 2.17 µM
- TGI (MCF7 breast): 5.7 µM
- GI50 (MDA-MB-231 breast): 2.06 µM
- TGI (MDA-MB-231 breast): 4.64 µM
- GI50 (MDA-MB-435): 2.47 µM
- TGI (MDA-MB-435): 6.24 µM
- GI50 (MDA-MB-468 breast): 2.26 µM
- TGI (MDA-MB-468 breast): 5.87 µM
- GI50 (MOLT-4 leukemia): 3.65 µM
- TGI (MOLT-4 leukemia): 15.8 µM
- GI50 (NCI-H226 lung): 1.88 µM
- TGI (NCI-H226 lung): 4.13 µM
- GI50 (NCI-H23 lung): 4.15 µM
- TGI (NCI-H23 lung): 15.8 µM
- GI50 (NCI-H460 lung): 2.17 µM
- TGI (NCI-H460 lung): 4.87 µM
- GI50 (NCI-H522 lung): 4.68 µM
- TGI (NCI-H522 lung): 19.5 µM
- GI50 (NCI/ADR-RES ovarian): 2.58 µM
- TGI (NCI/ADR-RES ovarian): 6.66 µM
- GI50 (OVCAR-3 ovarian): 1.85 µM
- TGI (OVCAR-3 ovarian): 4.14 µM
- GI50 (OVCAR-4 ovarian): 2.17 µM
- TGI (OVCAR-4 ovarian): 5.41 µM
- GI50 (OVCAR-5 ovarian): 2.4 µM
- TGI (OVCAR-5 ovarian): 8.1 µM
- GI50 (OVCAR-8 ovarian): 2.19 µM
- TGI (OVCAR-8 ovarian): 4.87 µM
- GI50 (PC-3 prostate): 2.42 µM
- TGI (PC-3 prostate): 7.01 µM
- GI50 (RPMI-8226 leukemia): 6.69 µM
- TGI (RPMI-8226 leukemia): 28.8 µM
- GI50 (RXF 393 renal): 1.55 µM
- TGI (RXF 393 renal): 3.71 µM
- GI50 (SF-268 CNS): 2.52 µM
- TGI (SF-268 CNS): 9.61 µM
- GI50 (SF-295 CNS): 5.4 µM
- TGI (SF-295 CNS): 18.8 µM
- GI50 (SF-539 CNS): 1.67 µM
- TGI (SF-539 CNS): 3.08 µM
- GI50 (SK-MEL-2 melanoma): 10.3 µM
- TGI (SK-MEL-2 melanoma): 23.5 µM
- GI50 (SK-MEL-28 melanoma): 1.71 µM
- TGI (SK-MEL-28 melanoma): 3.26 µM
- GI50 (SK-MEL-5 melanoma): 2.61 µM
- TGI (SK-MEL-5 melanoma): 10.6 µM
- GI50 (SK-OV-3 ovarian): 2.32 µM
- TGI (SK-OV-3 ovarian): 6.06 µM
- GI50 (SN12C renal): 1.71 µM
- TGI (SN12C renal): 3.83 µM
- GI50 (SNB-19 CNS): 4.11 µM
- TGI (SNB-19 CNS): 15.3 µM
- GI50 (SNB-75 CNS): 1.55 µM
- TGI (SNB-75 CNS): 4.33 µM
- GI50 (SW-620 colon): 3.03 µM
- TGI (SW-620 colon): 16.3 µM
- GI50 (T-47D breast): 3.15 µM
- TGI (T-47D breast): 17.8 µM
- GI50 (TK-10 renal): 10.5 µM
- TGI (TK-10 renal): 23.7 µM
- GI50 (U251 CNS): 2.86 µM
- TGI (U251 CNS): 9.2 µM
- GI50 (UACC-257 melanoma): 2.38 µM
- TGI (UACC-257 melanoma): 6.76 µM
- GI50 (UACC-62 melanoma): 2.14 µM
- TGI (UACC-62 melanoma): 6.96 µM
- GI50 (UO-31 renal): 12.2 µM
- TGI (UO-31 renal): 24.8 µM
